Assay results taken from PubChem BioAssay (NCI).
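A five-concentration, 48-hour dose response in 96-well plates underlies each endpoint, interpolated linearly between surrounding concentrations. TGI: total growth inhibition.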

Columns and labels:
Experiment in all cases: inhibition of tumour cell growth, NCI panel, 48 h
[1] = system: SNB-75 CNS
[2] = system: RXF 393 renal
[3] = system: HL-60(TB) leukemia
[4] = system: DMS 273 small cell lung
[5] = system: HCT-15 colon
[6] = system: DLD-1 colon
[7] = system: OVCAR-8 ovarian
[8] = system: SN12C renal
[9] = system: SW-620 colon
[10] = system: LXFL 529 NSCLC
[11] = system: IGROV1 ovarian
[12] = system: MALME-3M melanoma
[13] = system: A498 renal
[14] = system: SK-MEL-28 melanoma
[15] = system: K-562 leukemia
[16] = system: HT29 colon
[17] = system: NCI-H23 lung
[18] = system: RPMI-8226 leukemia
[19] = system: NCI-H460 lung
[20] = system: MOLT-4 leukemia
[21] = system: U251 CNS
[22] = system: TK-10 renal
[23] = system: COLO 205 colon
[24] = system: CCRF-CEM leukemia
[25] = system: OVCAR-5 ovarian
[26] = system: OVCAR-4 ovarian
[27] = system: SF-268 CNS
[28] = system: M14 melanoma
[29] = system: CAKI-1 renal
[30] = system: SK-OV-3 ovarian
[31] = system: HOP-18 NSCLC
[32] = system: UO-31 renal
[33] = system: KM20L2 colon
[34] = system: 786-0 renal
[35] = system: A549 NSCLC
[36] = system: UACC-62 melanoma
[37] = system: ACHN renal
[38] = system: LOX IMVI melanoma
[39] = system: SF-539 CNS
[40] = system: HOP-92 NSCLC
[41] = system: SNB-19 CNS
[42] = system: UACC-257 melanoma
[43] = system: SK-MEL-2 melanoma
[44] = system: EKVX NSCLC
[45] = system: RXF-631 renal
[46] = system: M19-MEL melanoma
[47] = system: NCI-H522 lung
[48] = system: SK-MEL-5 melanoma
[49] = system: NCI-H226 lung
[50] = system: HCT-116 colon
[51] = system: KM12 colon
[52] = system: DMS 114 small cell lung
[53] = system: SNB-78 CNS
[54] = system: HCC-2998 colon
[55] = system: OVCAR-3 ovarian
[56] = system: SF-295 CNS
[57] = system: SR leukemia
[58] = system: HOP-62 NSCLC

For `O=C(O)CN(c1ccccc1)S(=O)(=O)c1ccc(Cl)cc1`, the TGI [1] was > 100 µM, the TGI [2] was > 100 µM and the TGI [3] was > 100 µM. For the same compound, the TGI [4] was > 100 µM, the TGI [5] was > 100 µM and the TGI [6] was > 100 µM. For the same compound, the TGI [7] was > 100 µM, the TGI [8] was > 100 µM and the TGI [9] was > 100 µM. The TGI [10] was > 100 µM, the TGI [11] was > 100 µM and the TGI [12] was > 100 µM. The TGI [13] was > 100 µM, the TGI [14] was > 100 µM and the TGI [15] was > 100 µM. For the same compound, the TGI [16] was > 100 µM, the TGI [17] was > 100 µM and the TGI [18] was > 100 µM. The TGI [19] was > 100 µM, the TGI [20] was > 100 µM and the TGI [21] was > 100 µM. The TGI [22] was > 100 µM, the TGI [23] was > 100 µM and the TGI [24] was > 100 µM. The TGI [25] was > 100 µM, the TGI [26] was > 100 µM and the TGI [27] was > 100 µM. For the same compound, the TGI [28] was > 100 µM, the TGI [29] was > 100 µM and the TGI [30] was > 100 µM. The TGI [31] was > 100 µM, the TGI [32] was > 100 µM and the TGI [33] was > 100 µM. For the same compound, the TGI [34] was > 100 µM, the TGI [35] was > 100 µM and the TGI [36] was > 100 µM. The TGI [37] was > 100 µM, the TGI [38] was > 100 µM and the TGI [39] was > 100 µM. The TGI [40] was > 100 µM, the TGI [41] was > 100 µM and the TGI [42] was > 100 µM. The TGI [43] was > 100 µM, the TGI [44] was > 100 µM and the TGI [45] was > 100 µM. For the same compound, the TGI [46] was > 100 µM and the TGI [47] was > 100 µM.

For `CCOC(=O)CNC1C(NC(C)=O)C(OC)OC2COC(c3ccccc3)OC21` (configuration not stated), the TGI [48] was > 100 µM, the TGI [1] was > 100 µM and the TGI [2] was > 100 µM. For the same compound, the TGI [3] was > 100 µM, the TGI [4] was > 100 µM and the TGI [49] was > 100 µM. For the same compound, the TGI [5] was > 100 µM, the TGI [7] was > 100 µM and the TGI [8] was > 100 µM. For the same compound, the TGI [9] was > 100 µM, the TGI [10] was > 100 µM and the TGI [11] was > 100 µM. For the same compound, the TGI [50] was > 100 µM, the TGI [12] was > 100 µM and the TGI [13] was > 100 µM. The TGI [14] was > 100 µM, the TGI [15] was > 100 µM and the TGI [16] was > 100 µM. For the same compound, the TGI [17] was > 100 µM, the TGI [18] was > 100 µM and the TGI [19] was > 100 µM. For the same compound, the TGI [21] was > 100 µM, the TGI [22] was > 100 µM and the TGI [23] was > 100 µM. For the same compound, the TGI [24] was > 100 µM, the TGI [51] was > 100 µM and the TGI [25] was > 100 µM. The TGI [52] was > 100 µM, the TGI [26] was > 100 µM and the TGI [27] was > 100 µM. The TGI [53] was > 100 µM, the TGI [28] was > 100 µM and the TGI [29] was > 100 µM. For the same compound, the TGI [30] was > 100 µM, the TGI [31] was > 100 µM and the TGI [32] was > 100 µM. The TGI [33] was > 100 µM, the TGI [34] was > 100 µM and the TGI [35] was > 100 µM. The TGI [36] was > 100 µM, the TGI [37] was > 100 µM and the TGI [54] was > 100 µM. For the same compound, the TGI [38] was > 100 µM, the TGI [39] was > 100 µM and the TGI [40] was > 100 µM. The TGI [41] was > 100 µM, the TGI [42] was > 100 µM and the TGI [43] was > 100 µM. The TGI [55] was > 100 µM, the TGI [44] was > 100 µM and the TGI [45] was > 100 µM. The TGI [46] was > 100 µM, the TGI [56] was > 100 µM and the TGI [47] was > 100 µM.

`O=C(O)CCSC(=O)Nc1cccc([N+](=O)[O-])c1` was tested, and the TGI [1] was > 100 µM, the TGI [2] was > 100 µM and the TGI [3] was > 100 µM. For the same compound, the TGI [4] was > 100 µM, the TGI [5] was > 100 µM and the TGI [6] was > 100 µM. For the same compound, the TGI [7] was > 100 µM, the TGI [8] was > 100 µM and the TGI [9] was > 100 µM. For the same compound, the TGI [10] was > 100 µM, the TGI [11] was > 100 µM and the TGI [50] was > 100 µM. The TGI [13] was > 100 µM, the TGI [14] was > 100 µM and the TGI [15] was > 100 µM. The TGI [16] was > 100 µM, the TGI [57] was > 100 µM and the TGI [17] was > 100 µM. For the same compound, the TGI [18] was > 100 µM, the TGI [19] was > 100 µM and the TGI [20] was > 100 µM. The TGI [21] was > 100 µM, the TGI [22] was > 100 µM and the TGI [23] was > 100 µM. For the same compound, the TGI [24] was > 100 µM, the TGI [51] was > 100 µM and the TGI [52] was > 100 µM. The TGI [26] was > 100 µM, the TGI [27] was 64.8 µM and the TGI [58] was > 100 µM. For the same compound, the TGI [53] was > 100 µM, the TGI [28] was > 100 µM and the TGI [29] was > 100 µM. For the same compound, the TGI [32] was > 100 µM, the TGI [34] was > 100 µM and the TGI [35] was > 100 µM. The TGI [37] was > 100 µM, the TGI [54] was > 100 µM and the TGI [38] was > 100 µM. The TGI [39] was > 100 µM, the TGI [41] was > 100 µM and the TGI [42] was > 100 µM. The TGI [43] was > 100 µM, the TGI [55] was > 100 µM and the TGI [44] was > 100 µM. The TGI [56] was > 100 µM.
